Laboratory results as given in patent publication EP0153803A2, “Triazole antifungal agents” (Pfizer Limited, priority 1984, dated 1985).

test system: Candida albicans; experiment: in vivo protection of mice inoculated with Candida albicans (PD50); conditions: Candida albicans, 48 h, vs. Candida albicans in mice; dose giving 50% protection against lethal effect of the infection, 48 hours observation; route not given
Description: The in vivo evaluation of the compounds can be carried out at a series of dose levels by intraperitoneal or intravenous injection or by oral administration, to mice which are inoculated with a strain of Candida albicans. Activity is based on the survival of a treated group of mice after the death of an untreated group of mice following 48 hours observation.- The dose level at which the compound provides 50% protection (PD50) against the lethal effect of the infection is noted. Using the test method described in the text, the following PD50 values were obtained vs. Candida albicans in mice:-

SMILES	ED50 [mg/kg]
CC(C)(n1cncn1)C(O)(c1ccc(F)cc1)c1ccc(F)cc1 [Example 6, 1,1-Bis(4-fluorophenyl)-2-methyl-2-(1H-1,2,4-triazol-1-yl)propan-l-ol]	1.6
CC(C)(n1cncn1)C(O)(c1ccc(Cl)cc1)c1ccc(F)cc1F (racemic) [Example 4]	2.3
CC(n1cncn1)C(O)(c1ccc(F)cc1)c1ccc(F)cc1F (single isomer, unassigned) [Example 2]	< 1
OC(c1ccc(Cl)cc1)(c1ccc(Cl)cc1Cl)C(F)n1cncn1 (single isomer, unassigned) [Example 10]	3.2
OC(c1ccc(F)cc1F)(c1ccc(F)cc1F)C(F)n1cncn1 (racemic) [Example 11]	< 1
CC(C)(n1cncn1)C(O)(c1ccc(F)cc1)c1ccc(F)cc1F (racemic) [Example 5]	2.2
CC(C)(n1cncn1)C(O)(c1ccc(Cl)cc1)c1ccc(Cl)cc1 [Example 3]	< 1
OC(c1ccc(F)cc1)(c1ccc(F)cc1)C(F)n1cncn1 (stereo not drawn) [Example 8, 2-Fluoro-1,1-di-(4-fluorophenyl)-2-(1,2,4-triazol-1-yl)ethanol]	0.3
CC(F)(n1cncn1)C(O)(c1ccc(Cl)cc1)c1ccc(F)cc1F (stereo not drawn) [Example 1, 1-(4-Chlorophenyl)-1-(2,4-difluorophenyl)-2-fluoro-2-(1H-3,2,4-triazol-1-yl)propan-1-ol]	0.95
OC(c1ccc(F)cc1)(c1ccc(Cl)cc1Cl)C(F)n1cncn1 (single isomer, unassigned) [Example 9 (diastereomer I)]	0.3

same assay, conditions: vs. Candida albicans in mice; dose giving 50% protection against lethal effect of the infection, 48 hours observation; route not given; 2880 min

SMILES	PD50 [mg/kg]
OC(c1ccc(F)cc1)(c1ccc(F)cc1)C(F)n1cncn1 (single isomer, unassigned) [Example 12(+)]	0.75
OC(c1ccc(Cl)cc1)(c1ccc(F)cc1F)C(F)n1cncn1 (single isomer, unassigned) [Example 7 (diastereomer I), 1-(4-Chloroghenyl)-1-(2,4-difiuorophenyl)-2-fiuoro-2-(1H-1,2,4-triazol-l-yl)-ethanol]	1.6
OC(c1ccc(F)cc1)(c1ccc(Cl)cc1Cl)C(F)n1cncn1 (single isomer, unassigned) [Example 9 (diastereomer II)]	0.5
OC(c1ccc(F)cc1)(c1ccc(F)cc1)C(F)n1cncn1 (single isomer, unassigned) [Example 12(-)]	0.2
OC(c1ccc(Cl)cc1)(c1ccc(F)cc1F)C(F)n1cncn1 (single isomer, unassigned) [Example 7 (diastereomer II), 1-(4-Chloroghenyl)-1-(2,4-difiuorophenyl)-2-fiuoro-2-(1H-1,2,4-triazol-l-yl)-ethanol]	0.3
